The record followed here is patent US8993718B2, “Methods and compositions for detecting and modulating O-glycosylation” (President and Fellows of Harvard College, priority 2007, dated 2015).

Entries after “also recorded” stand apart in the source; their conditions may differ. Non-standard residues stand in square brackets, D forms with d. Primed or numbered codes have the meaning given here. No end group written: not given here. *: point of attachment. FITC = O=C1OC2(c3ccc(O)cc3Oc3cc(O)ccc32)c2ccc(NC(=S)*)cc21; Aha′ = not defined here

Holding throughout (assay type): biochemical
The target of one assay is T1, ppGalNAcT1 (Homo sapiens, UniProt Q10472).
T1 sequence (Q10472 1-559): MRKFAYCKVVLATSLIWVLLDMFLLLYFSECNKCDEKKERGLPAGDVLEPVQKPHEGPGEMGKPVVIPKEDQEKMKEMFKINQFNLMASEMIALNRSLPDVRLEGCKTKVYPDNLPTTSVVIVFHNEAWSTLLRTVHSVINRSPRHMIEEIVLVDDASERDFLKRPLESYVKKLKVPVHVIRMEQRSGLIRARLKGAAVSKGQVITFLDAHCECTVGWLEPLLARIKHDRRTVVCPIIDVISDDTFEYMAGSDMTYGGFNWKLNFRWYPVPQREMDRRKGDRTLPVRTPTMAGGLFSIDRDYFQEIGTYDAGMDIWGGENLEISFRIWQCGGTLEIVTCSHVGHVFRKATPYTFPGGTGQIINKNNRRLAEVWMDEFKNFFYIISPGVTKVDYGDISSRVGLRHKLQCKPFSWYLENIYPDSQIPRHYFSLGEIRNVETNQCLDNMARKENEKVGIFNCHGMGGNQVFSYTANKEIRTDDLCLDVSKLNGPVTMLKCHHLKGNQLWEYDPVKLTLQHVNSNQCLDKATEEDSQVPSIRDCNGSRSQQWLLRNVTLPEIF
Briefly: Protease protection assay for ppGalNAcT1. How it is done: (§1) There are multiple isoforms of the enzyme polypeptide N-acetylgalactosaminyltranferases (ppGalNAcTs). Activity of ppGalNAcTs are illustrated in FIG. 14. Using assay methods as described above, peptide substrates for ppGalNAcTs were prepared and used to assay to identify modulators of ppGalNAcTs activity. Peptide substrates EPGPTEAPK (SEQ ID NO:25) and EDAVTPGPK (SEQ ID NO:26) were prepared (see FIG. 15) and utilized to assay for modulators of the enzymes. Each peptide substrate include a proteinase K cleavage site. The identified compound SEQ ID NO:25 is a general substrate for ppGalNAcTs and identified compound SEQ ID NO:26 is a selective substrate for the enzyme ppGalNAcT1. Assays were run and alterations in the rate and/or amount of cleavage by proteinase K was determined. […] The difference in cleavage permitted use of the assay to identify compounds that inhibit glycosylation of the substrate by ppGalNAcTs. Additional inhibitory compounds identified using the assay include Compound 24 and Compound 27 (see Table 1).
(§2) It was determined that the assay could also be used to identify isoform selective inhibitors. […] The presence of the inhibitor disrupted crystal growth of the ppGalNAcT2.

Another assay relates to ppGalNAcTs. Description: Protease protection assay for ppGalNAcTs (general). How it is done: as §1
The target of the next assay is ppGalNAcT2 (Homo sapiens, UniProt Q10471). Briefly: Protease protection assay for ppGalNAcT2. As for the experimental part: as §1, §2
ppGalNAcT2, sequence (Q10471 whole entry): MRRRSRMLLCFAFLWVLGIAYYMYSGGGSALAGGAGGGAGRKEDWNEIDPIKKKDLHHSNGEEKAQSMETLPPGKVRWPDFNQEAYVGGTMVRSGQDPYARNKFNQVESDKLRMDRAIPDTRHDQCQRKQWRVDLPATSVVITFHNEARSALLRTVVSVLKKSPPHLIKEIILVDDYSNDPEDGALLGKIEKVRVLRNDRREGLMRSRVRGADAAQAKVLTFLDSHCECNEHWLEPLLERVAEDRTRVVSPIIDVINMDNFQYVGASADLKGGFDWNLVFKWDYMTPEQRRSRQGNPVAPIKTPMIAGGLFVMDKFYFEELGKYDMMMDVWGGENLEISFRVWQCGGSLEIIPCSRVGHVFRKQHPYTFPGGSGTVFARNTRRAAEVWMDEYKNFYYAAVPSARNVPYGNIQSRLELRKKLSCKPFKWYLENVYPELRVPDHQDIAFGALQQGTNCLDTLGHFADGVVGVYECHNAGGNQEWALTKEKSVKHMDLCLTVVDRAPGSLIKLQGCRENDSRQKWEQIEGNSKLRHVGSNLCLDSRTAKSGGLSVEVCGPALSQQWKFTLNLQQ
The target of assay [1] is T2, O-Linked N-acetylglucosaminyltransferase (OGT) (Homo sapiens, UniProt O15294).
T2 sequence (O15294 1-1046): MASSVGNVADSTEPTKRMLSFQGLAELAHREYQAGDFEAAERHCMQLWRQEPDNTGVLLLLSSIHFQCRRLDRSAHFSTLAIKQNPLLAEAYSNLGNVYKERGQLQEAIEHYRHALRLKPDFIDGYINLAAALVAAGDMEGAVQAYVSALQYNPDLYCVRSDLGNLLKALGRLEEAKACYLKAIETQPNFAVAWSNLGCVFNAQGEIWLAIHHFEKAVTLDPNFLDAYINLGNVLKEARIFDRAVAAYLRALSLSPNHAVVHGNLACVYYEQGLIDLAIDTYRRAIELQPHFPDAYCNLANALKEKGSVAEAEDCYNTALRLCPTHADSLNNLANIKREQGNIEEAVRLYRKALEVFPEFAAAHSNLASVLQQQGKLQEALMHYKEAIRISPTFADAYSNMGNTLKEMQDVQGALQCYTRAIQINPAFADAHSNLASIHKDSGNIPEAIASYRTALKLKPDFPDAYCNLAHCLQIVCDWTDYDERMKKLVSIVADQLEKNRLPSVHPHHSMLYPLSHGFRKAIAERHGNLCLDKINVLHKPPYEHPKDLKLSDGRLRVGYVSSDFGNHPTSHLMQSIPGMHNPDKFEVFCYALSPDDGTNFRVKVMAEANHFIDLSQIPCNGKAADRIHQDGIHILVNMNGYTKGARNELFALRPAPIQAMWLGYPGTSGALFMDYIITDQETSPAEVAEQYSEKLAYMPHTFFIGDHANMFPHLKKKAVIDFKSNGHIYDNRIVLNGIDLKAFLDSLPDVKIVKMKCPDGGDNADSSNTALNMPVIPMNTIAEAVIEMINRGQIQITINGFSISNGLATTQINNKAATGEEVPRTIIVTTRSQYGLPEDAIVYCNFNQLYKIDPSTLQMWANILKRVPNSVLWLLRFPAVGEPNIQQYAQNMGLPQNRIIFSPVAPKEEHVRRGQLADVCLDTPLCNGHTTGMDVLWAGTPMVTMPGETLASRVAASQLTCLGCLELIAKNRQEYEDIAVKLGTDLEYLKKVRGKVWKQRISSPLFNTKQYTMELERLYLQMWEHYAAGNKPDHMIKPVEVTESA
Briefly: Glycosylation of CK2-derived polypeptide substrates by OGT, quantified by LC/MS. How it is done: To address the first requirement, a panel of polypeptides was synthesized based on a truncated version of the CKII polypeptide [CKII peptide PGGSTPVSSNAMM (SEQ ID NO:20)]. The polypeptide was modified from the native sequence in several ways. First, a fluorescein was installed on the N-terminus during synthesis. Second, a lysine was added to the C-terminus so that a second dye or quencher could be installed by reaction with the appropriate N-hydroxysuccinimidyl ester. These modifications allowed two different FRET approaches. The first approach required the installation of a coumarin derivative on the polypeptide. The second required installation of a quencher molecule, which measured total fluorescence intensity. (See Examples 2 and 3). Finally, the residues on either side of the glycosylated serine of the truncated CK2 polypeptide were changed to phenylalanine, leucine or arginine to introduce proteolytic cleavage sites for common proteases (such as trypsin, chymotrypsin and thermolysin) that were not present in the native sequence. It was reasoned that cleavage adjacent to the glycosylation site would yield the largest difference in the rate of proteolysis between glycosylated and native polypeptides. This series of polypeptides was synthesized and screened for OGT activity using by LC/MS. Peak integration (measured at 445 nm) was used to quantitative products and reactants and mass spectrometry was used to confirm peak identity. The results are presented in Table 2 and some of the peptides (peptide 4.1, 4.4, and 4.5 top to bottom) are illustrated in FIG. 2.
All polypeptides were purchased from Tufts University core facility (Boston, Mass.). The mass of crude product was verified and the polypeptides were labeled under the following conditions: Polypeptide was dissolved in 250 mM NaHCO3 buffer, pH 8.2 at a 5 mM concentration and the appropriate NHS-Ester (0.5 eq) was dissolved in DMSO (a volume of 1/10 of the aqueous buffer was used). The DMSO solution was quickly added to the peptide and the reaction proceeded at room temperature for 30 minutes. This was repeated 2 more times (four more times for polypeptide 4.10). The reaction was monitored by LC/MS. LCMS conditions for polypeptides 4.1-4.8—Agilent Eclipse 5 μm XD8-C8 column, 0→100% CH3CN+0.1% formic acid over 20 minutes. LCMS conditions for polypeptides 4.9-4.10—Agilent Eclipse 5 μm XD8-C8 column, 0→100% CH3CN+0.1% NH4OH over 20 minutes. Each polypeptide was purified by preparative HPLC. Conditions for polypeptides 4.1-4.8 were: —Phenomonex Luna C18 5 μm column, 0→100% CH3CN+0.1% TFA over 40 minutes. Conditions for polypeptides 4.9-4.10 were: —Phenomonex Luna C18 5 μm column, 0→100% CH3CN+0.1% NH4OH over 40 minutes. Products were confirmed by LC/MS. Preparative Glycosylation of Labeled Polypeptides: Purified FRET labeled polypeptides were added (20-50 μM final concentration) to assay buffer (50 mM Tris, 20 mM CaCl2, 0.05% Tween-20, 0.05% NP-40, pH=7.8), 200 μM UDP-GlcNAc, 0.05 units of alkaline phosphatase, and 5 μM OGT. Reactions were monitored using LCMS: conditions for polypeptides 4.1-4.8—Agilent Eclipse 5 μm XD8-C8 column, 10→60% CH3CN+0.1% formic acid over 20 minutes. LCMS conditions for polypeptides 4.9-4.10—Agilent Eclipse 5 μm XD8-C8 column, 10→60% CH3CN+0.1% NH4OH over 20 minutes, and when complete were purified using the same column and conditions. Polypeptides 4.1-4.8 were quantitated by absorption at 492 nm using an extinction coefficient of 86,000 cm^−1M^−1; polypeptide 4.9 was quantitated by absorption at 530 nm using an extinction coefficient of 26,000 cm^−1M^−1; polypeptide 4.10 was quantitated by absorption at 530 nm using an extinction coefficient of 52,000 cm^−1M^−1. Fluorescence Resonance Energy Transfer (FRET)-Peptide Approach #1

Turning to `O=C(O)CCCN1C(=O)C(O)=C(C(=O)/C=C\c2ccccc2)C1c1ccccc1` (centres unmarked) [Compound 24], the “inhibition of ppGalNAcT1 (% glycosylation, FIG. 18)” value on ppGalNAcT1 is listed as “inhibits”. Moreover, the “inhibition of ppGalNAcTs” value with ppGalNAcTs is recorded as “inhibitory; also recorded: inhibitors”. For the same molecule, the “inhibition of ppGalNAcT2 (% glycosylation, FIG. 18)” value against ppGalNAcT2 is “inhibits”.

As for `O=C1NC(=O)N(Cc2ccco2)C(=O)/C1=C\c1ccco1` [Compound 25], at ppGalNAcT2 (FIG. 18B), the “isoform selectivity ppGalNAcT2 vs ppGalNAcT1” value was “more selective inhibitor for ppGalNAcT2 than for ppGalNAcT1; also recorded: more selectively inhibits ppGalNAcT2 than ppGalNAcT1”.

On to `O=C1NC(=S)NC(=O)C1=C/C=C\c1ccco1` [Compound 26], for which, in the assay with ppGalNAcTs, the “inhibition of ppGalNAcTs” value is given as “inhibitors”.

With `O=C(O)CCCCCn1c(SCC(=O)c2ccc(O)c(O)c2)nc2ccsc2c1=O` [Compound 27], the “inhibition of ppGalNAcTs” value in the assay on ppGalNAcTs is listed as “inhibitory; also recorded: inhibitors”.

Consider “FITC(Aha)STPVSSANMK ({FITC}-[Aha′]STPVSSANMK; reading uncertain; also: printed as FITC(Aha)STPVSSANMK) [Polypeptide 4.1]”, for which, in assay [1] (FIG. 2, natural (wild-type) sequence set as reference), the relative glycosylation rate was determined as 100%. Besides, the “Relative rate of glycosylation” value in assay [1] (OGT, LC/MS peak integration at 445 nm, relative to wt polypeptide 4.1) is given as 1.
